Laboratory results from patent US20230012368A1 (Hoffmann-La Roche Inc., priority 2018, published 2023).
Counter-ions that a name gives are not always drawn. Like-named read-outs stand apart in the source and are kept apart here.

System: Acinetobacter baumannii ATCC 17978
Assay: Antimicrobial susceptibility testing: 90% growth inhibitory concentration (IC90) determination
Type: cell-based
Conditions: 90% growth inhibitory concentration, Acinetobacter baumannii ATCC17978, Iso-Sensitest broth, OD 600 nm over 16h, read-out: ATCC17978 IC90
Method: Antimicrobial Susceptibility Testing:
90% Growth Inhibitory Concentration (IC90) Determination
The in vitro antimicrobial activity of the compounds was determined according to the following procedure:
The assay used a 10-points Iso-Sensitest broth medium to measure quantitatively the in vitro activity of the compounds against Acinetobacter baumannii ATCC 17978 and Acinetobacter baumannii ATCC 17961.
Stock compounds in DMSO were serially twofold diluted (e.g. range from 50 to 0.097 μM final concentration) in 384 wells microtiter plates and inoculated with 49 μl the bacterial suspension in Iso-Sensitest medium to have a final cell concentration of ˜5×10^(5) CFU/ml in a final volume/well of 50 ul/well. Microtiter plates were incubated at 35±2° C.
Bacterial cell growth was determined with the measurement of optical density at λ=600 nm each 20 minutes over a time course of 16h. Growth inhibition was calculated during the logarithmic growth of the bacterial cells with determination of the concentration inhibiting 50% (IC50) and 90% (IC90) of the growth.
Table 1 provides the 90% growth inhibitory concentrations (IC90) in micromoles per liter of the compounds of present invention obtained against the strain Acinetobacter baumannii ATCC17978 and Acinetobacter baumannii ATCC17961.

[1] = Acinetobacter baumannii, ATCC17978, 16 h

| IC90 [1] [nM] | SMILES | IC90 [nM] |
| --- | --- | --- |
| 2500 | COc1ccc(-c2cnc3c(Nc4ccc(C(=O)NCCCNC(=O)CC[C@H](N)C(=O)O)c(C)c4)nccn23)c(F)c1F [Example 355, (2S)-2-amino-5-[3-[[4-[[3-(2,3-difluoro-4-methoxyphenyl)imidazo[1,2-a]pyrazin-8-yl]amino]-2-methylbenzoyl]amino]propyl-amino]-5-oxopentanoic acid] | – |
| 1100 | COC(=O)[C@@H](N)CCCCNC(=O)c1ccc(Nc2nccn3c(-c4ccc(OC(F)F)cc4)cnc23)cc1C [Example 226, methyl (2S)-2-amino-6-[[4-[[3-[4-(difluoromethoxy)phenyl]im-idazo[1,2-a]pyrazin-8-yl]amino]-2-methylbenzoyl]amino]hexa-noate;hydrochloride] | – |
| 1300 | Cc1cc(Nc2nccn3c(-c4ccc(OC(F)F)cc4)cnc23)ccc1C(=O)N(C)CCC1CCN(S(C)(=O)=O)CC1 [Example 234, 4-[[3-[4-(difluoromethoxy)phenyl]im-idazo[1,2-a]pyrazin-8-yl]amino]-N,2-dimethyl-N-[2-(1-methylsulfonylpiperidin-4-yl)ethyl]benzamide] | – |
| 50 | COc1ccc(-c2cnc3c(Nc4ccc(C(=O)NCCCNC(=O)[C@@H]5C[C@@H](O)CN5)c(C)c4)nccn23)c(F)c1F [Example 358, (2S,4R)-N-[3-[[4-[[3-(2,3-difluoro-4-methoxyphenyl)imidazo[1,2-a]pyrazin-8-yl]amino]-2-methylbenzoyl]amino]propyl]-4-hydroxypyrrolidine-2-carboxamide] | – |
| 820 | CNC(=O)c1ccc(Nc2nccn3c(-c4ccc(OC(F)F)cc4)cnc23)cc1[N+](=O)[O-] [Example 54, 4-((3-(4-(difluoromethoxy)phenyl)imidazo[1,2-a]pyrazin-8-yl)amino)-N-methyl-2-nitrobenzamide] | – |
| 290 | COc1ccc(-c2cnc3c(Nc4ccc(C(=O)N[C@@H](C)CNC(C)=N)c(C)c4)nccn23)c(F)c1F [Example 488, 4-[[3-(2,3-difluoro-4-methoxyphenyl)imidazo[1,2-a]pyrazin-8-yl]amino]-#N!- [(2#S!)-1-(ethanimidoylamino)propan-2-yl]-2-methylbenzamide;formic acid] | – |
| 150 | CCc1cc(Nc2nccn3c(-c4ccc(OC)c(F)c4F)cnc23)ccc1C(=O)NCc1cnn(C)c1 [Example 555, 4-[[3-(2,3-difluoro-4-methoxy-phenyl)imidazo[1,2-a]pyrazin-8-yl]amino]-2-ethyl-N-[(1-methylpyrazol-4-yl)methyl]benzamide] | – |
| 140 | COc1ccc(-c2cnc3c(Nc4ccc(C(=O)N(C)CCC5CCNCC5)c(C)c4)nccn23)cc1F [Example 11, hydrochloride] | – |
| 3600 | Cc1cc(Nc2nccn3c(-c4ccc(OC(F)F)cc4)cnc23)ccc1C(=O)N(C)CCCN1CCCCC1 [Example 257, 4-[[3-[4-(difluoromethoxy)phenyl]im-idazo[1,2-a]pyrazin-8-yl]amino]-N,2-dimethyl-N-(3-piperidin-1-ylpropyl)benzamide] | – |
| 1900 | COc1ccc(-c2cnc3c(Nc4ccc(C(=O)N(C)CC(=O)N(C)C)c(C)c4)nccn23)cc1F [Example 7, N-[2-(dimethylamino)-2-oxo-ethyl]-4-[[3-(3-fluoro-4-methoxy-phenyl)imidazo[1,2-a]pyrazin-8-yl]amino]-N,2-dimethyl-benzamide] | – |
| 2600 | COc1ccc(-c2cnc3c(Nc4ccc(C(=O)NCC5(O)CCNCC5)c(C)c4)nccn23)cc1F [Example 285, 4-[[3-(3-fluoro-4-methoxyphenyl)imidazo[1,2-a]pyrazin-8-yl]amino]-N-[(4-hydroxypiperidin-4-yl)methyl]-2-methylbenzamide;2,2,2-trifluoroacetic acid] | – |
| 5100 | Cc1cc(Nc2nccn3c(-c4ccc(OC(F)F)cc4)cnc23)ccc1C(=O)N(C)CCN1CCCCC1 [Example 265, 4-[[3-[4-(difluoromethoxy)phenyl]im-idazo[1,2-a]pyrazin-8-yl]amino]-N,2-dimethyl-N-(2-piperidin-1-ylethyl)benzamide] | – |

Second part, the molecule before the results:

| SMILES | IC90 [1] [nM] | IC90 [nM] |
| --- | --- | --- |
| COc1ccc(-c2cnc3c(Nc4ccc5c(c4)CCN(C)C5=O)nccn23)c(F)c1F [Example 391, 6-[[3-(2,3-difluoro-4-methoxy-phenyl)imidazo[1,2-a]pyrazin-8-yl]amino]-2-methyl-3,4-dihydroisoquinolin-1-one] | 51 | – |
| N#CCOc1ccc(-c2cnc3c(Nc4ccc(C(=O)NCCCCCCCN)c(Cl)c4)nccn23)c(F)c1F [Example 521, N-(7-aminoheptyl)-2-chloro-4-((3-(4-(cyanomethoxy)-2,3-difluorophenyl)imidazo[1,2-a]pyrazin-8-yl)amino)benzamide] | 24 | – |
| CCc1cc(Nc2nccn3c(-c4ccc(OC)c(F)c4F)cnc23)ccc1C(=O)NCC(O)CN (stereo not shown) [Example 334, N-(3-amino-2-hydroxypropyl)-4-[[3-(2,3-difluoro-4-methoxyphenyl)imidazo[1,2-a]pyrazin-8-yl]amino]-2-ethylbenzamide] | 350 | – |
| CCc1cc(Nc2nccn3c(-c4ccc(Oc5ccc(F)cn5)c(F)c4F)cnc23)ccc1C(=O)NCCNC(=O)[C@H](N)CCNC(=N)N [Example 429, N-[2-[[(2R)-2-amino-4-guanidino-butanoyl]amino]ethyl]-4-[[3-[2,3-difluoro-4-[(5-fluoro-2-pyridyl)oxy]phenyl]imidazo [1,2-a]pyrazin-8-yl]amino]-2-ethyl-benzamide; formic acid] | 620 | – |
| COc1ccc(-c2cnc3c(Nc4ccc(C(=O)N(C)CCN5CCNCC5)c(Cl)c4)nccn23)cc1F [Example 90, 2-chloro-4-((3-(3-fluoro-4-methoxyphenyl)imidazo [1,2-a]pyrazin-8-yl)amino)-N-methyl-N-(2-(piperazin-1-yl)ethyl)benzamide hydrochloride] | – | 230 |
| COc1ccc(-c2cnc3c(Nc4ccc(C(=O)N(C)CCN5CCN(CC(F)F)CC5)c(C)c4)nccn23)cc1F [Example 113, N-[2-[4-(2,2-difluoroethyl)piperazin-1-yl]ethyl]-4-[[3-(3-fluoro-4-methoxy-phenyl)imidazo[1,2-a]pyrazin-8-yl]amino]-N,2-dimethyl-benzamide; formic acid] | – | 2000 |
| CCc1cc(Nc2nccn3c(-c4ccc(OCc5cc[nH]n5)c(F)c4F)cnc23)ccc1C(=O)N[C@@H](C)CN (racemic) [Example 485, rac-(R)-4-((3-(4-((1H-pyrazol-3-yl)methoxy)-2,3-difluorophenyl)imidazo[1,2-a]pyrazin-8-yl)amino)-N-(1-aminopropan-2-yl)-2-ethylbenzamide] | 800 | – |
| N#CCOc1ccc(-c2cnc3c(Nc4ccc(C(=O)NCCc5ccncc5)c(Cl)c4)nccn23)c(F)c1Cl [Example 80, 2-chloro-4-[[3-[3-chloro-4-(cyanomethoxy)-2-fluoro-phenyl]imidazo[1,2-a]pyrazin-8-yl]amino]-N-[2-(4-pyridyl)ethyl] benzamide] | 270 | – |
| CCc1cc(Nc2nccn3c(-c4ccc(Cl)cc4F)cnc23)ccc1C(=O)NCCCN [Example 283, N-(3-aminopropyl)-4-[[3-(4-chloro-2-fluorophenyl)imidazo[1,2-a]pyrazin-8-yl]amino]-2-ethylbenzamide; hydrochloride] | – | 2000 |
| CCc1cc(Nc2nccn3c(-c4ccc(OC)c(F)c4F)cnc23)ccc1C(=O)N[C@@H](C)CNC(=O)[C@@H](N)CCCCN [Example 453, N-[(1S)-2-[[(2S)-2,6-diaminohexanoyl]amino]-1-methyl-ethyl]-4-[[3-(2,3-difluoro-4-methoxy-phenyl)imidazo[1,2-a]pyrazin-8-yl]amino]-2-ethyl-benzamide] | 320 | – |
